Reference: US11242337B2, “Compounds useful for treating gastrointestinal tract disorders” (Ardelyx, Inc., priority 2017, dated 2022)
Read-outs that look alike come from different tables or passages of the source.

Key:
[1] = test system: human duodenum monolayer culture; assay: Increased trans-epithelial resistance (TEER) in human organoid monolayer cell cultures; format: cell-based; conditions: 1 μM apical, baseline corrected
Procedure: Basal media (B consisted of advanced DMEM/F12 containing 10 mM HEPES (Invitrogen, 15630-080), 1:100 Glutamax (Invitrogen, 35050-061), and 1:100 penicillin/streptomycin (Invitrogen, 15140-122). Supplemented basal media (SBM) contained 1:100 N2 (Invitrogen, 17502-048), 1:50 B27 (Invitrogen, 12587-010), 1 mM N-acetylcysteine (Sigma, A9165), and 10 nM [Leu15]-gastrin I (Sigma, G9145). Growth factors used included 50 ng per mL mouse EGF (Peprotech, 315-09), 100 ng per mL mouse noggin (Peprotech, 250-38), 500 ng per mL human R-spondin 1 (R&D, 4645-RS), 100 ng per mL mouse Wnt-3a (R&D, 1324-WN), 20 μM Y-27632 (Tocris, 1254), 10 mM nicotinamide (Sigma, N0636), 500 nM A83-01 (Tocris, 2939), 10 μM SB202190 (Tocris, 1264). Transwells were 0.4 μm pore polyester membrane 24-well Transwell inserts (Corning). Cultures were incubated at 37° C. in 5% CO2.
Human duodenum organoids were cultured in WENRNAS (Wnt, EGF, noggin, R-spondin1, Nicotinamide, A83-01, SB202190) and typically grown for 7-12 days before being used to plate monolayer cultures. On day 0, organoid cultures embedded in Matrigel were treated with TrypLE Express to break organoids into small pieces and/or single cells. The cells were resuspended to 0.5×10^6 cells/mL in SBM containing WENRAY (Wnt, EGF, noggin, R-spondin1, A83-01, Y-27632). Following this step, 200 μL of cell suspension was plated into the apical side of a 24-well Transwell (100,000 cells/well) and 600 μL of SBM with WENRAY was added to the basolateral side. Duodenum cells were differentiated with ENA (EGF, noggin, A83-01) on day 3. The color of apical compartment turns from pink or orange to yellow due to the increase in NHE3 expression after differentiation.
Each human duodenum monolayer culture well was washed twice with fresh SBM on the apical side on day 6 or day 7 before dosing. All compound stocks were 10 mM dissolved DMSO. Each compound stock was individually mixed with fresh SBM to reach final compound concentration 1 μM and dosed only on the apical side of the monolayer (total volume 200 μl). DMSO at the equivalent concentration was used as the vehicle control. Duplicate wells were dosed for each compound. Transepithelial electrical resistance (TEER) was used as a quantitative technique to measure of tight junction permeability. TEER values were recorded (MERS00002, Millipore) before dosing and 30 mins and 1 hr after dosing for all wells. Each of the duplicate TEER values following treatment were corrected for the individual well baseline TEER. Baseline corrected TEER for each example compound was compared to the average of the DMSO wells and expressed as a percent TEER of vehicle control.

[2] = test system: absorption of sodium from the intestinal lumen; assay: Inhibition of intestinal sodium absorption in rats; format: in vivo, Sprague Dawley rats; conditions: 13-hours post-dose; for response vs control in vivo at 0.03 mg/kg / response vs control in vivo at 0.1 mg/kg / response vs control in vivo at 0.3 mg/kg: Rattus norvegicus, Sprague Dawley rats, read-out: Urinary Na (% of Vehicle, out/in); for response vs control in vivo at 0.03 mg/kg: oral gavage 0.03 mg/kg; for response vs control in vivo at 0.1 mg/kg: oral gavage 0.1 mg/kg; for response vs control in vivo at 0.3 mg/kg: oral gavage 0.3 mg/kg; for FFS (1-5): rats, group median fecal form score, 1 normal pellet to 5 liquid fecal streams
Procedure: Urinary sodium excretion and fecal form were measured to assess the ability of selected example compounds to inhibit the absorption of sodium from the intestinal lumen. Eight-week old, male, Sprague Dawley rats were purchased from Envigo (Livermore, Calif.), were housed 2 per cage and acclimated for at least 48 hours before study initiation. Animals were fed. Harlan Teklad Global TD.160470 rodent chow (Madison, Wis.), standard laboratory rodent chow Harlan Teklad Global 2018 with the addition of 0.4% inorganic phosphorous. Animals had ad libitum access to food and water for the duration of the study and were maintained in a temperature and humidity controlled room on a standard light/dark cycle of 6 AM to 6 PM. On the day of study initiation, rats (n=5/group) were dosed by oral gavage with test compound or vehicle (3 mM HCl, 0.01% Tween80) at a dose volume of […]. Immediately after dose administration animals were placed in individual metabolic cages. At 13-hours post-dose, urine samples were collected and fecal form was assessed. In addition, the weight of food consumed over the 13-hour period was measured and recorded. Fecal forms were scored according to a common scale associated with increasing fecal water to the wettest observation in the cage's collection funnel (1, normal pellet; 2, pellet adhering to sides of collection funnel due to moisture; 3, loss of normal pellet shape; 4, complete loss of shape with a blotting pattern; 5, liquid fecal streams evident). Fecal form score (FFS) was calculated for each group as the median of each individual rat's FFS within the group and reported in Table 7. Fecal samples were dried using a lyophilizer for at least 3 days, following which dry weight was recorded and fecal fluid content was calculated based on the difference between the wet and dry stool weights. Fecal fluid content was calculated as a change from the vehicle group mean. For urine samples, the volumes were determined gravimetrically. Urine samples were analyzed on an ion chromatography system (Thermo Fisher ICS-3000 or ICS-5000+) coupled with conductivity detectors. Chromatographic separation of cations was performed using an IonPac CS12A (Thermo Fisher) 2×250 mm analytical column with an isocratic elution using 25 mM methanesulfonic acid. Concentrations were interpolated from a standard curve (prepared in 10 mM HCl) for sodium based on retention time and peak area. Thirteen-s-hour urinary sodium excretion (mg/13-hours) was calculated by multiplying urinary sodium concentration by 13-hour urine volume. The urinary sodium excretion of compound treatment was normalized to dietary sodium intake and expressed as a percentage of the vehicle mean.

[3] = 1 hr after dosing, read-out: TEER at 60 minutes (% of Vehicle)
[4] = 0.5 h, 30 mins after dosing, read-out: TEER at 30 minutes (% of Vehicle)

SMILES | activity at 1 µM [1, 3] [%] | activity at 1 µM [1, 4] [%] | response vs control in vivo at 0.03 mg/kg [2] [%] | response vs control in vivo at 0.1 mg/kg [2] [%] | response vs control in vivo at 0.3 mg/kg [2] [%] | FFS (1-5) ([2]; 0.03 mg/kg) | FFS (1-5) ([2]; 0.1 mg/kg) | FFS (1-5) ([2]; 0.3 mg/kg)
Cc1cc(S(=O)(=O)NCCOCCOCCNC(=O)NCCCCNC(=O)NCCOCCOCCNS(=O)(=O)c2ccc(O[C@H]3c4cc(Cl)cc(C)c4C[C@@H]3N(C)C)c(C)c2)ccc1O[C@H]1c2cc(Cl)cc(C)c2C[C@@H]1N(C)C [Example 17, 3-[2-(2-[2-[(4-[[(1S,2S)-6-Chloro-2-(dimethylamino)-4-methyl-2,3-dihydro-1H-inden-1-yl]oxy]-3-methylbenzene)sulfonamido]ethoxy]ethoxy)ethyl]-1-[4-([[2-(2-[2-[(4-[[(1S,2S)-6-chloro-2-(dimethylamino)-4-methyl-2,3-dihydro-1H-inden-1-yl]oxy]-3-methylbenzene)sulfonamido]ethoxy]ethoxy)ethyl]carbamoyl]amino)butyl]urea] | 100 to 130 | 100 to 130 |  |  |  |  |  | 
Cc1cc(S(=O)(=O)NCCOCCOCCNC(=O)NCCCCNC(=O)NCCOCCOCCNS(=O)(=O)c2ccc(O[C@H]3c4cc(Cl)cc(C#N)c4C[C@@H]3N3CCNCC3)c(C)c2)ccc1O[C@H]1c2cc(Cl)cc(C#N)c2C[C@@H]1N1CCNCC1 [Example 42, 3-[2-(2-[2-[(4-[[(1S,2S)-6-Chloro-4-cyano-2-(piperazin-1-yl)-2,3-dihydro-1H-inden-1-yl]oxy]-3-methylbenzene)sulfonamido]ethoxy]ethoxy)ethyl]-1-[4-([[2-(2-[2-[(4-[[(1S,2S)-6-chloro-4-cyano-2-(piperazin-1-yl)-2,3-dihydro-1H-inden-1-yl]oxy]-3-methylbenzene)sulfonamido]ethoxy]ethoxy)ethyl]carbamoyl]amino)butyl]urea; bis(trifluoroacetic acid)] | > 130 | 100 to 130 |  |  |  |  |  | 
Cc1cc(S(=O)(=O)NCCOCCOCCNC(=O)NCCCCNC(=O)NCCOCCOCCNS(=O)(=O)c2ccc(O[C@H]3c4cc(Cl)cc(Cl)c4C[C@@H]3N3CCNCC3)c(C)c2)ccc1O[C@H]1c2cc(Cl)cc(Cl)c2C[C@@H]1N1CCNCC1 [Example 32, 3-[2-(2-[2-[(4-[[(1S,2S)-4,6-Dichloro-2-(piperazin-1-yl)-2,3-dihydro-1H-inden-1-yl]oxy]-3-methylbenzene)sulfonamido]ethoxy]ethoxy)ethyl]-1-[4-([[2-(2-[2-[(4-[[(1S,2S)-4,6-dichloro-2-(piperazin-1-yl)-2,3-dihydro-1H-inden-1-yl]oxy]-3-methylbenzene)sulfonamido]ethoxy]ethoxy)ethyl]carbamoyl]amino)butyl]urea; bis(trifluoroacetic acid)] | > 130 | 100 to 130 |  |  |  |  |  | 
C[C@@H]1CN([C@H]2Cc3c(C#N)cc(Cl)cc3[C@@H]2Oc2ccc(S(=O)(=O)N[C@@H]3CCN(CCOCCNC(=O)NCCCCNC(=O)NCCOCCN4CC[C@@H](NS(=O)(=O)c5ccc(O[C@H]6c7cc(Cl)cc(C#N)c7C[C@@H]6N6CCN[C@H](C)C6)cc5)C4)C3)cc2)CCN1 [Example 133, 4-([(1S,2S)-6-Chloro-4-cyano-2-[(R)-3-methylpiperazin-1-yl]-2,3-dihydro-1H-inden-1-yl]oxy)-N—[(R)-1-(20-[(R)-3-([4-([(1S,2S)-6-chloro-4-cyano-2-[(R)-3-methylpiperazin-1-yl]-2,3-dihydro-1H-inden-1-yl]oxy)phenyl]sulfonamido)pyrrolidin-1-yl]-7,14-dioxo-3,18-dioxa-6,8,13,15-tetraazaicosyl)pyrrolidin-3-yl]benzenesulfonamide; bis(trifluoroacetic acid)] |  |  | > 70 | < 40 | < 40 | 3 | 3 | 3
N#Cc1cc(Cl)cc2c1C[C@H](N1CCNCC1)[C@H]2Oc1ccc(S(=O)(=O)N[C@H]2CCN(C(=O)CCCNC(=O)NCCCCNC(=O)NCCCC(=O)N3CC[C@H](NS(=O)(=O)c4ccc(O[C@H]5c6cc(Cl)cc(C#N)c6C[C@@H]5N5CCNCC5)cc4)C3)C2)cc1 [Example 143, 4-([(1S,2S)-6-Chloro-4-cyano-2-(piperazin-1-yl)-2,3-dihydro-1H-inden-1-yl]oxy)-N—[(S)-1-(18-[(S)-3-([4-([(1S,2S)-6-chloro-4-cyano-2-(piperazin-1-yl)-2,3-dihydro-1H-inden-1-yl]oxy)phenyl]sulfonamido)pyrrolidin-1-yl]-6,13,18-trioxo-5,7,12,14-tetraazaoctadecanoyl)pyrrolidin-3-yl]benzenesulfonamide] |  |  | 40 to 70 | < 40 | < 40 | 3 | 3 | 4
CN(C)[C@H]1CCCN([C@H]2Cc3c(C#N)cc(Cl)cc3[C@@H]2Oc2ccc(S(=O)(=O)NCCOCCOCCNC(=O)NCCCCNC(=O)NCCOCCOCCNS(=O)(=O)c3ccc(O[C@H]4c5cc(Cl)cc(C#N)c5C[C@@H]4N4CCC[C@H](N(C)C)C4)cc3)cc2)C1 [Example 122, 4-([(1S,2S)-6-Chloro-4-cyano-2-[(S)-3-(dimethylamino)piperidin-1-yl]-2,3-dihydro-1H-inden-1-yl]oxy)-N-[26-([4-([(1S,2S)-6-chloro-4-cyano-2-[(S)-3-(dimethylamino)piperidin-1-yl]-2,3-dihydro-1H-inden-1-yl]oxy)phenyl]sulfonamido)-10,17-dioxo-3,6,21,24-tetraoxa-9,11,16,18-tetraazahexacosyl]benzenesulfonamide] |  |  | > 70 | > 70 | 40 to 70 | 2 | 2 | 3
N#Cc1cc(Cl)cc2c1C[C@H](N1CCNCC1)[C@H]2Oc1ccc(S(=O)(=O)N2CCC(NC(=O)CCCNC(=O)NCCCCNC(=O)NCCCC(=O)NC3CCN(S(=O)(=O)c4ccc(O[C@H]5c6cc(Cl)cc(C#N)c6C[C@@H]5N5CCNCC5)cc4)CC3)CC2)cc1 [Example 120, N^1,N^18-Bis(1-([4-([(1S,2S)-6-chloro-4-cyano-2-(piperazin-1-yl)-2,3-dihydro-1H-inden-1-yl]oxy)phenyl]sulfonyl)piperidin-4-yl)-6,13-dioxo-5,7,12,14-tetraazaoctadecanediamide] |  |  | > 70 | 40 to 70 | < 40 | 2 | 3 | 4
